The values that follow come from US20110263478A1, “SUR1 INHIBITORS FOR THERAPY” (priority 2008, published 2011).

For orientation: pKa means the negative logarithm of the acid dissociation constant.

“Also recorded” adds a separate entry of the source. Some results are limits rather than exact numbers.

Series [1] concerns NCCa-ATP channels in bEnd.3 cells. Nature of the series: Patch clamp, Na azide-induced ATP depletion current in endothelial cells exposed to hypoxia. It counts as cell-based, murine. Conditions: 1 μM glibenclamide; hypoxic endothelial cells. The method, then:
Patch clamp of endothelial cells was performed using a nystatin-perforated patch technique, to maintain the metabolic integrity of the cells. The identity of the activated channel can be assessed by measurement of the “reversal potential”, the potential at which an ion channel current reverses from inward to outward. With physiologically relevant concentrations of ions intracellularly and extracellularly (high potassium inside, high sodium outside), the reversal potential can unambiguously distinguish between a K^+ channel current such as KATP, which reverses negative to −50 mV and a non-selective cation channel current such as NCCa-ATP, which reverses near 0 mV.
Cell culture. Endothelial cell cultures from human brain microvessels, human aorta (ScienCell Research Laboratories), and murine brain microvessels (bEnd.3; ATCC), were grown at low density using media and supplements recommended by suppliers.

The test system of series [2] is rats with spinal cord injury (SCI). The series is described as follows: Rat cervical SCI model: neurobehavioral assessment (inclined plane, paw placement, rearing). It counts as in vivo. The procedure:
(§1) SCI injury model. This study was performed in accordance with the guidelines of the Institutional Animal Care and Use Committee. Adult female Long-Evans rats (275-350 gm) were anesthetized (Ketamine, 60 mg/kg plus Xylazine, 7.5 mg/kg, i.p.). The dura at C4-5 was exposed via a left hemilaminectomy. A hemi-cervical spinal cord contusion was created using a blunt force impactor (1.3-mm impactor head driven by a 10 gm weight dropped vertically 25 mm) (Soblo sky et al., 2001; Gensel et al., 2006). After SCI, animals were given 10 ml of glucose-free normal saline s.q. Rectal temperature was maintained at ˜37° C. using a servo-controlled warming blanket.
For in vivo gene suppression of SUR1, we used oligodeoxynucleotides that were phosphorothioated at 4 distal bonds to protect against endogenous nucleases (35).
Neurobehavioral assessment. All measurements were performed by blinded evaluators. Performance on the inclined plane was evaluated as described (Rivlin and Tator, 1977). To assess paw placement and vertical exploration (rearing) (Nikulina et al., 2004) animals were videotaped while in a translucent cylinder (19×20 cm). Rearing was quantified as the number of seconds spent with both front paws elevated above shoulder-height during a 3-min period of observation.

The conditions of series [3]: rat, in vivo. The method, then: as §1, with “blanket. Blood gases and serum glucose 10-15 min post-SCI were: pO2, 95±6 mm Hg; pCO2, 46±3 mm Hg; pH, 7.33±0.01; glucose 258±17 mg/dl in controls and pO2, 96±7 mm Hg; pCO2, 45±2 mm Hg; pH, 7.37±0.01; glucose 242±14 mg/dl in glibenclamide-treated animals.” for “blanket.”
Drug delivery. […] During the course of the project, slightly different formulations of drug were used, with the best results obtained using stock solutions made by placing 50 mg (or 25 mg) of drug into 10 ml DMSO, and infusion solutions made by placing 400 μl (or 800 μl) stock into 4.6 ml (or 4.2 ml) unbuffered saline (0.9% NaCl) and adjusting the pH to ˜8.5 using 0.1 N NaOH.

In series [4] the test system is recombinant MMP-2 and MMP-9. The series is described as follows: Zymography of gelatinase activity of recombinant MMP. It counts as biochemical. Conditions: glibenclamide 10 μM; MMP-inhibitor II 300 nM. The method, then:
In post-ischemic reperfusion of CNS tissues, catastrophic failure of capillary integrity has been attributed to the action of matrix metalloproteinases (MMP) (Wang et al., 2004).
Zymography of recombinant MMP-2 and MMP-9 (Sigma) was performed as described (Sumii and Lo, 2002).

The conditions of series [5]: male, Long-Evans, rat, in vivo. The source says: (§2) Young adult male Long-Evans rats, 240-280 gm, were studied. Rats were anesthetized (Ketamine and Xylazine) and physiological parameters including temperature and blood gases were maintained within appropriate physiological ranges. With the head fixed in a stereotaxic frame, a 6-mm circular craniectomy was created abutting the sagittal and lambdoidal sutures. A posterior location was chosen to emphasize damage to underlying hippocampus (Vink et al., 2001; Floyd et al., 2002). […] Sham controls underwent craniectomy without percussion.

Series [6] deals with rats with percussion-TBI. Nature of the series: Percussion-TBI rats: extravasated blood (progressive secondary hemorrhage). It counts as in vivo, rat.
Text: as §2

Series [7] concerns rats with percussion-TBI. Nature of the series: Percussion-TBI rats: neurobehavioral function (SFU, SVE). The series is classed as in vivo, rat.
Text: as §2
Spontaneous forelimb use (SFU) was quantified and spontaneous vertical exploration (SVE) was quantified during 7 days post-TBI. SFU measures sensorimotor asymmetry (Schallert et al., 2000) whereas SVE measures not only vestibulomotor function but also time spent in exploratory activity.

In series [8] the test system is rats with spinal cord injury (SCI). The conditions noted are these: rodent model of SCI (Simard et al., 2007); cited from earlier work.
The conditions of series [9]: cited from earlier work.
The conditions of series [10]: in humans; cited from earlier work.
Series [11] has as its system rodent models of ischemic stroke. The conditions noted are these: cited from earlier work.
The conditions of series [12]: loading dose 10 μg/kg i.p. plus 200 ng/hr s.q.; cited from earlier work.
Where [13] appears, read: 1, 3 and 7 d post-SCI, vs vehicle.
Where [14] appears, read: model of malignant cerebral edema.

Take `COc1ccc(Cl)cc1C(=O)NCCc1ccc(S(=O)(=O)NC(=O)NC2CCCCC2)cc1` [glibenclamide]: the “block of Na azide-induced ohmic current” value in [1] was “blocked”. Besides, in series [2] (setting [13]), the “performance on inclined plane” value was “significantly better performance” and the “vertical exploratory behavior (rearing)” value is given as “significantly better performance”. The “vertical exploration (rearing), time during 3-min observation” value in [2] (1 d post-SCI, 200 ng/h s.q.) worked out at 42 ± 7 s. Further, the ipsilateral paw placement entry in series [2] (1 d post-SCI, vs vehicle) is given as “significantly better performance”. Besides, the general mobility entry in series [2] (post-SCI, vs vehicle-treated rats generally not mobile) is “typically ambulatory and often exhibited proficient exploratory behavior”. Further, in [3], the serum glucose came to 242 ± 14 mg/dL. Moreover, the “gelatinase activity of recombinant MMP” value in [4] is listed as “the same; also recorded: not affected”. For the same compound, the “time required to achieve 90% steady-state serum drug levels” value in series [5] was determined as 3 h. Also, the “extravasated blood at later times” value with rats with percussion-TBI [6] (6 and 24 hr post-TBI, vs vehicle) is on record as “prevented further increases in blood”. The “volume of blood in brain homogenate” value in the series with rats with percussion-TBI [6] (½ hr post-TBI) is given as “did not affect”. The “spontaneous vertical exploration (SVE)” value with rats with percussion-TBI [7] (1, 2 and 7 days post-TBI, vs controls) is recorded as “significantly greater SVE scores”. Also, the “spontaneous use of forelimb contralateral to injury” value in the series with rats with percussion-TBI [7] (2 days post-TBI, controls 3.5±3.5%, P=0.05) is on record as 16.5±3.4%. The “reduction in lesion volume after SCI” value in [8] is on record as 3 fold. The pKa in series [9] is recorded as 6.3. The volume of distribution in [10] was 0.2 L/kg. In [11] (setting [14]), the “reduction of cerebral edema (excess water)” value is listed as “half” and the reduction of mortality entry is “half”. In series [11] (stroke induced by thromboemboli), the “reduction of lesion volume” value was “half”. Besides, in series [12], the “effect on serum glucose” value is “minimal effects” and the estimated serum concentration is listed as less than 10 nM.
